Experimental data published in patent US12281299B2, “Control of nitrogen fixation in rhizobia that associate with cereals” (Massachusetts Institute of Technology, priority 2019, dated 2025).
Counter-ions that a name gives are not always drawn.

Tested on: R. sp. IRBG74
Experiment: Genetic part characterization for Rhizobia (promoters, RBSs, terminators, inducible systems; fluorescence reporter, flow cytometry)
Type: cell-based, Rhizobium sp.
Details: synthetic RBS strength in R. sp. IRBG74; plasmid pMR-40, IPTG-inducible system, 1 mM IPTG induction
Text: Construction and characterization genetic parts for Rhizobia. Genetic part libraries were built on a pBBR1-ori plasmid pMR-1 using Gibson assembly (New England Biolabs, Cat # E2611). The fluorescence proteins, GFPmut3b and mRFP1 were used as reporters. The Anderson promoter library (Anderson, J. et al. BglBricks: A flexible standard for biological part assembly. 4, 1 (2010)) on the BioBricks Registry were utilized for the characterization of constitutive promoters (FIGS. 11A-11C). To characterize inducible promoters, a regulator protein is constitutively expressed by the PlacIq promoter, and GFP expression is driven by a cognate inducible promoter from the opposite direction, facilitating replacement of the reporter with gene of interest (e.g., T7 RNAP and nifA) and transfer of the controller unit across different plasmid backbones for diverse microbes. The following combinations of cognate regulators and inducible promoters were characterized. IPTG inducible LacI-A1lacO1, DAPG inducible PhlF-PPhl, aTc inducible TetR-PTet, 3OC6HSL inducible LuxR-PLux, salicylic acid inducible NahR-PSal, and cuminic acid inducible CymR-PCym systems were optimized for R. sp. IRBG74 (FIG. 14). Opine inducible OccR-Pocc, and nopaline inducible NocR-Pnoc systems were optimized for A. caulinodans (FIGS. 20A-20F and Tables 9 and 10). For RBS characterization, an IPTG-inducible GFP expression plasmid pMR-40 was used and GFP was expressed to the highest levels with 1 mM IPTG (FIGS. 12A-12B). RBS library for GFP was designed using the RBS library calculator at the highest-resolution mode, and the 3′ end of the 16S rRNA sequences were adjusted according to the species (3′-ACCTCCTTC-5′ for R. sp. IRBG74). Terminators for T7 RNAP were characterized by placing a terminator between two fluorescence reporters expressed from a single T7 wild-type promoter located upstream of the first fluorescence protein GFP. The expression of the two fluorescence proteins is enabled by the controller strain MR18 encoding the IPTG-inducible T7 RNAP system by 1 mM IPTG (FIGS. 13A-13B). The terminator strength (Ts) was determined by normalizing fluorescence levels of a terminator construct by a reference construct pMR-66 where a 40 bp spacer was placed between the reporters. All genetic parts for Rhizobia were characterized as follows.

Molecule	Strength (GFP, au)
RB5r1 (DNA ATTTCACACATCTAGAGCTAATCATCTCGTACTAAAGAGGAGAAATTAACCATG; chemistry not fully specified)	8242 au
RB5r2 (DNA ATTTCACACATCTAGAGCTAATCATCGCGTACTCAGGAGGCAAGTAATG; chemistry not fully specified)	7181.5 au
RB5r3 (DNA ATTTCACACATCTAGAATTAAAGAGGAGAAATTAACCATG; chemistry not fully specified)	6238.5 au
RB5r4 (DNA TAACAATTTCACACATCTAGAGCTAATCATCTCGTACTAAAGAGGCAAGTAATG; chemistry not fully specified)	3618 au
RB5r5 (DNA TAACAATTTCACACATCTAGAGCTAATCATCGCGTACTAAGGAGGCAAGTAATG; chemistry not fully specified)	3560 au
RB5r6 (DNA TAACAATTTCACACATCTAGAGCTAATCATCGCGTACTCAAGAGGCAAGTAATG; chemistry not fully specified)	2614.5 au
RB5r7 (DNA TAACAATTTCACACATCTAGAGCTAATCTTCGCGTACTAAAGAGGCAAGTAATG; chemistry not fully specified)	2418.5 au
RB5r8 (DNA TAACAATTTCACACATCTAGAGCTAATCATCTCGTACTCAGGAGGCAAGTAATG; chemistry not fully specified)	1882.5 au
RB5r9 (DNA TAACAATTTCACACATCTAGAGCTAATCATCTCGTACTAATGAGGCAAGTAATG; chemistry not fully specified)	1593.5 au
RBST-10 (DNA TAACAATTTCACACATCTAGAGCTAATCATCGCGTACTAATGAGGCAAGTAATG; chemistry not fully specified)	1590 au
RBST-11 (DNA TAACAATTTCACACATCTAGAGCTAATCATCGCGTACTCACGAGGCAAGTAATG; chemistry not fully specified)	1554 au

Tested on: P. protegens Pf-5
Experiment: Genetic part characterization for P. protegens (promoters, RBSs, terminators, inducible systems; fluorescence reporter, flow cytometry)
Type: cell-based, Pseudomonas protegens
Details: P. protegens Pf-5, pRO1600 plasmid
Text: Construction and characterization genetic parts for P. protegens. Genetic part libraries were built on a pRO1600-ori plasmid pMR-2 using Gibson assembly (New England Biolabs, Cat # E2611). The fluorescence proteins, GFPmut3b and mRFP1 were used as reporters. The Anderson promoter library on the BioBricks Registry were utilized for the characterization of constitutive promoters (FIGS. 11A-11C). The following combinations of cognate regulators and inducible promoters were characterized. IPTG inducible LacI-Ptac, DAPG inducible PhlF-PPhl, aTc inducible TetR-PTet, 3OC6HSL inducible LuxR-PLux, arabinose inducible AraC-PBAD, cuminic acid inducible CymR-PCym, and naringenin inducible FdeR-PFde were optimized (FIGS. 15A-15C). […] RBS library for GFP was designed using the RBS library calculator at the highest-resolution mode, and the 3′ end of the 16S rRNA sequences were adjusted according to the species (3′-ACCTCCTTA-5′ for P. protegens Pf-5). Terminators for T7 RNAP were characterized by placing a terminator between two fluorescence reporters expressed from a single T7 wild-type promoter located upstream of the first fluorescence protein GFP. The expression of the two fluorescence proteins is enabled by an IPTG-inducible T7 RNAP expression system of the controller strain MR7 (FIGS. 13A-13B). All genetic parts for P. protegens Pf-5 were characterized as follows.

Molecule	function of inducible system
CCCC(=O)CC(=O)N[C@H]1CCOC1=O [3OC6HSL, N-(3-Oxohexanoyl)-L-homoserine lactone, reference compound]	functional
Cc1c2c(c(O)c3c(O)cccc13)C(=O)[C@]1(O)C(=O)C(C(N)=O)=C(O)[C@@H](N(C)C)[C@@H]1C2 [aTc, Anhydrotetracycline hydrochloride, reference compound]	functional
CC(C)c1ccc(C(=O)O)cc1 [cuminic acid, Cuminic acid, reference compound]	functional
O=C1C[C@@H](c2ccc(O)cc2)Oc2cc(O)cc(O)c21 [naringenin, Naringenin, reference compound]	functional

Same assay, conditions: synthetic RBS strength in P. protegens Pf-5; plasmid pMR-65, arabinose-inducible system, 7 μM arabinose induction

Molecule	Strength (GFP, au)
R135132 (DNA CTAGCGAAGGTCCAACGTTTTTCTAAGCAAGGAGGTCATATG; chemistry not fully specified)	21590 au
R135133 (DNA CTAGCGAAGGTCCAACGTTTTTCTAAGCCAGGAGGTCATATG; chemistry not fully specified)	19690 au
R135135 (DNA CTAGCGAAGCTCCAACGTTTTTCTAAGCAAGGAGGTCATATG; chemistry not fully specified)	17990 au
RBSp1 (DNA CTAGCGCAGGTCCAACGTTTTTCTAAGCAAGGAGGTCATATG; expressed or natural sequence)	25090 au
RBSp4 (DNA CTAGCGCAGGTCCAACGTTTTTCTAAGCCAGGAGGTCATATG; expressed or natural sequence)	19490 au
RBSp6 (DNA GAATTCTACACTAACGGACAGGAGGGTCCGATG; expressed or natural sequence)	14490 au
RBSp7 (DNA GAATTCTAAACTAACGGACAGGAGGGTCCGATG; expressed or natural sequence)	13390 au
RBSp8 (DNA GAATTCTAAGCTAACGGACAGGAGGGTCCGATG; expressed or natural sequence)	12790 au
RBSp9 (DNA GAATTCTTAACTAACGGACAGGAGGGTCCGATG; expressed or natural sequence)	11490 au
RBSp10 (DNA GAATTCTACACTAACGGACAGGAGGGTCGGATG; expressed or natural sequence)	11090 au
RBSp11 (DNA GAATTCTACGCTAACGGACAGGAGGGTCCGATG; expressed or natural sequence)	10390 au
RBSp12 (DNA GAATTCTCAACTAACGGACAGGAGGGTCCGATG; expressed or natural sequence)	9590 au
RBSp13 (DNA GAATTCTAAGCTAACGGACAGGAGGGTCGGATG; expressed or natural sequence)	8918 au
RBSp14 (DNA GAATTCTCAGCTAACGGACAGGAGGGTCCGATG; expressed or natural sequence)	8766 au
RBSp15 (DNA GAATTCTCAACTAACGGACAGGAGGGTCCGATG; expressed or natural sequence)	7596 au
RBSp16 (DNA GAATTCTACGCTAACGGACAGGAGGGTCGGATG; expressed or natural sequence)	6055 au
RBSp17 (DNA GAATTCTCAACTAACGGACAGGAGATATACATATG; expressed or natural sequence)	5939 au
RBSp18 (DNA GAATTCTCAGCTAACGGACAGGAGGGTCGGATG; expressed or natural sequence)	5915 au
RBSp19 (DNA GAATTCTAAACTAACGGACAGGAGGGTCGGATG; expressed or natural sequence)	4867 au
RBSp20 (DNA GAATTCTCAGCTCACGGACAGGAGGGTCGGATG; expressed or natural sequence)	4426 au
RBSp21 (DNA GAATTCTCAACTAACGGACAGGAGGGTCGGGATG; expressed or natural sequence)	4110 au
RBSp22 (DNA GAATTCTACACTCACGGACAGGAGGGTCGGATG; expressed or natural sequence)	3977 au
RBSp23 (DNA GAATTCTAAGCTCACGGACAGGAGGGTCGGATG; expressed or natural sequence)	3829 au
RBSp24 (DNA GAATTCTCAACTCACGGACAGGAGGGTCGGATG; expressed or natural sequence)	3661 au
RBSp25 (DNA GAATTCTACACTAACGGACAGCAGGGTCGGATG; expressed or natural sequence)	3542 au
RBSp27 (DNA GAATTCTCAGCTAACGGACAGCAGGGTCGGATG; expressed or natural sequence)	1265 au
RBSp28 (DNA CTAGCGCAGGTCCAACCTTTTTCTAAGCAACTAGGTCATATG; expressed or natural sequence)	389 au
RBSp29 (DNA CTAGCGAAGGTCCAACCTTTTTCTAAGCCAGTAGGTCATATG; expressed or natural sequence)	377 au
RBSp30 (DNA GAATTCTACGCTCACGGACAGCAGGGTCGGATG; expressed or natural sequence)	221 au
RBSp31 (DNA GAATTCTCCGCTCACGGACAGGAGGGTCCGATG; expressed or natural sequence)	23.3 au
